{"source": "patent US9695154B2", "about": "“Heteroaryl inhibitors of sumo activating enzyme” (MILLENNIUM PHARMACEUTICALS, INC., priority 2013, dated 2017)", "biological_target": "T1, recombinant human SAE enzyme (Homo sapiens, UniProt Q9UBT2)", "T1 sequence (Q9UBT2 1-640)": "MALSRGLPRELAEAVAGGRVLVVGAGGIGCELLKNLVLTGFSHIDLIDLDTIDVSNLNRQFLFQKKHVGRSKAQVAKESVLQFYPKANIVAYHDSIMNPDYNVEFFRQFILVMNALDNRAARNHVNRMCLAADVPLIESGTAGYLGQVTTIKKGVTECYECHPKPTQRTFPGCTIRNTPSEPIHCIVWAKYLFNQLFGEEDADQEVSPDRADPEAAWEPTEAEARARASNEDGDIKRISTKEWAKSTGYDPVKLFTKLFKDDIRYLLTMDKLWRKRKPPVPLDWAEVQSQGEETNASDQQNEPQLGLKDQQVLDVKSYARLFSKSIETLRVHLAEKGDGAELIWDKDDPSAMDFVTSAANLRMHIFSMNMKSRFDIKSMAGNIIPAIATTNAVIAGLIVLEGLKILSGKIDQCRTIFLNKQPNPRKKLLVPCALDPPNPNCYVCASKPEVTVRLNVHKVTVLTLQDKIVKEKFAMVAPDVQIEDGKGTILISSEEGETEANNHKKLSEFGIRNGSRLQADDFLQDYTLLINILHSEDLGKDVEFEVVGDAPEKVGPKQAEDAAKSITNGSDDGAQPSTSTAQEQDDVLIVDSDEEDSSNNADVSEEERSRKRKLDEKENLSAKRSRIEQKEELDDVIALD", "T1 sequence (Q9UBE0 1-346 partner)": "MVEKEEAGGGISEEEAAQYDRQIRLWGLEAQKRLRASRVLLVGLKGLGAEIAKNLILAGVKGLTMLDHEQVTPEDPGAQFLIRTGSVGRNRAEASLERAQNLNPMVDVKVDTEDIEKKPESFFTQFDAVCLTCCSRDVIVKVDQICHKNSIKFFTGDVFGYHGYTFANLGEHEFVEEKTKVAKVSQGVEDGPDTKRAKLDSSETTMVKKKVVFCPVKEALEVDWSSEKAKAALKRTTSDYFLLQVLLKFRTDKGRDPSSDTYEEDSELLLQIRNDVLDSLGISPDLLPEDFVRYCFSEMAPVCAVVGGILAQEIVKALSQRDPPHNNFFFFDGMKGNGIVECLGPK", "experiment": "SAE HTRF Enzyme Assay", "assay_type": "biochemical", "details": "for IC50: class symbols A-C; for inhibition at 0.111 µM: read-out: Percent Inhibition", "method_in_brief": "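Recombinant human SAE (0.11 nM) transferred Sumo-Flag (0.125 μM) to Ubc9-GST (0.01 μM) with 0.5 μM ATP in HEPES pH 7.5, MgCl2, GSH, BSA; 105 min at 24° C. EDTA stop, Eu-cryptate anti-Flag and XL-APC anti-GST added, 2 h, then HTRF read. Values given as % inhibition at one concentration or IC50.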", "key": {"[1]": {"details": "compound concentration 0.111 μM"}}, "data": [{"smiles": "NS(=O)(=O)OC[C@H]1C[C@@H](Nc2ncncc2C(=O)c2ccn(Cc3cccc(Br)c3F)n2)[C@@H](F)[C@@H]1O", "note": "[Compound I-177, ((1R,2R,3R,4R)-4-((5-(1-(3-Bromo-2-fluorobenzyl)-1H-pyrazole-3 carbonyl)pyrimidin-4-yl)amino)-3-fluoro-2-hydroxycyclopentyl)methyl sulfamate]", "values": [{"measurement": "IC50", "value": "< 10", "unit": "nM"}, {"measurement": "inhibition at 0.111 µM", "setting": "[1]", "value": 99, "unit": "%"}]}, {"smiles": "NS(=O)(=O)OC[C@H]1C[C@@H](Nc2ncncc2C(=O)c2ccn(Cc3ccc(F)c(Cl)c3)n2)[C@H](O)[C@@H]1O", "note": "[Compound I-89, {(1R,2R,3S,4R)-4-[(5-{[1-(3-chloro-4-fluorobenzyl)-1H-pyrazol-3-yl]carbonyl}pyrimidin-4-yl)amino]-2,3-dihydroxycyclopentyl}methyl sulfamate]", "values": [{"measurement": "IC50", "value": "< 10", "unit": "nM"}, {"measurement": "inhibition at 0.111 µM", "setting": "[1]", "value": 98, "unit": "%"}]}, {"smiles": "C[Si](C)(C)c1cccc(Cn2ccc(C(=O)c3cncnc3N[C@@H]3C[C@H](COS(N)(=O)=O)[C@@H](O)C3)n2)c1", "note": "[Compound I-137, [(1R,2S,4R)-2-hydroxy-4-{[5-({1-[3-(trimethylsilyl)benzyl]-1H-pyrazol-3-yl}carbonyl)pyrimidin-4-yl]amino}cyclopentyl]methyl sulfamate]", "values": [{"measurement": "IC50", "value": "10 to 100", "unit": "nM"}, {"measurement": "inhibition at 0.111 µM", "setting": "[1]", "value": 78, "unit": "%"}]}, {"smiles": "Cc1cc(C(=O)c2cncnc2N[C@@H]2C[C@H](COS(N)(=O)=O)[C@@H](O)C2)nn1Cc1cccc(Cl)n1", "note": "[Compound I-99, [(1R,2S,4R)-4-{[5-({1-[(6-chloropyridin-2-yl)methyl]-5-methyl-1H-pyrazol-3-yl}carbonyl)pyrimidin-4-yl]amino}-2-hydroxycyclopentyl]methyl sulfamate]", "values": [{"measurement": "IC50", "value": "< 10", "unit": "nM"}, {"measurement": "inhibition at 0.111 µM", "setting": "[1]", "value": "> 99", "unit": "%"}]}, {"smiles": "NS(=O)(=O)OC[C@H]1C[C@@H](Nc2ncncc2C(=O)c2ccn(Cc3cccc(OC(F)F)c3)n2)C[C@@H]1O", "note": "[Compound I-117, [(1R,2S,4R)-4-{[5-({1-[3-(difluoromethoxy)benzyl]-1H-pyrazol-3-yl}carbonyl)pyrimidin-4-yl]amino}-2-hydroxycyclopentyl]methyl sulfamate]", "values": [{"measurement": "IC50", "value": "< 10", "unit": "nM"}, {"measurement": "inhibition at 0.111 µM", "setting": "[1]", "value": 98, "unit": "%"}]}, {"smiles": "Cc1cccc(Cn2ccc(C(=O)c3cncnc3N[C@@H]3C[C@H](COS(N)(=O)=O)[C@@H](O)C3)n2)n1", "note": "[Compound I-298, [(1R,2S,4R)-2-hydroxy-4-{[5-({1-[(6-methylpyridin-2-yl)methyl]-1H-pyrazol-3-yl}carbonyl)pyrimidin-4-yl]amino}cyclopentyl]methyl sulfamate]", "values": [{"measurement": "IC50", "value": "< 10", "unit": "nM"}, {"measurement": "inhibition at 0.111 µM", "setting": "[1]", "value": 97, "unit": "%"}]}, {"smiles": "NS(=O)(=O)OC[C@H]1C[C@@H](Nc2ncncc2C(=O)c2ccn(Cc3ccc(C(F)(F)F)o3)c2)C[C@@H]1O", "note": "[Compound I-274, [(1R,2S,4R)-2-hydroxy-4-({5-[(1-{[5-(trifluoromethyl)-2-furyl]methyl}-1H-pyrrol-3-yl)carbonyl]pyrimidin-4-yl}amino)cyclopentyl]methyl sulfamate]", "values": [{"measurement": "IC50", "value": "< 10", "unit": "nM"}, {"measurement": "inhibition at 0.111 µM", "setting": "[1]", "value": 97, "unit": "%"}]}, {"smiles": "Cc1ccc(F)c(Cn2ccc(C(=O)c3cncnc3N[C@@H]3C[C@H](COS(N)(=O)=O)[C@@H](O)C3)n2)c1", "note": "[Compound I-32, {(1R,2S,4R)-4-[(5-{[1-(2-fluoro-5-methylbenzyl)-1H-pyrazol-3-yl]carbonyl}pyrimidin-4-yl)amino]-2-hydroxycyclopentyl}methyl sulfamate]", "values": [{"measurement": "IC50", "value": "< 10", "unit": "nM"}, {"measurement": "inhibition at 0.111 µM", "setting": "[1]", "value": 98, "unit": "%"}]}, {"smiles": "NS(=O)(=O)OC[C@H]1C[C@@H](Nc2ncncc2C(=O)c2ccn(Cc3cccc(I)c3)n2)C[C@@H]1O", "note": "[Compound I-292, {(1R,2S,4R)-2-Hydroxy-4-[(5-{[1-(3-iodobenzyl)-1H-pyrazol-3-yl]carbonyl}pyrimidin-4-yl)amino]cyclopentyl}methyl sulfamate]", "values": [{"measurement": "IC50", "value": "< 10", "unit": "nM"}, {"measurement": "inhibition at 0.111 µM", "setting": "[1]", "value": 98, "unit": "%"}]}, {"smiles": "CC(C)CC#CCn1ccc(C(=O)c2cncnc2N[C@@H]2C[C@H](COS(N)(=O)=O)[C@@H](O)C2)n1", "note": "[Compound I-153, {(1R,2S,4R)-2-hydroxy-4-[(5-{[1-(5-methylhex-2-yn-1-yl)-1H-pyrazol-3-yl]carbonyl}pyrimidin-4-yl)amino]cyclopentyl}methyl sulfamate]", "values": [{"measurement": "IC50", "value": "10 to 100", "unit": "nM"}, {"measurement": "inhibition at 0.111 µM", "setting": "[1]", "value": 82, "unit": "%"}]}, {"smiles": "NS(=O)(=O)OC[C@H]1C[C@@H](Nc2ncncc2C(=O)c2ccn(Cc3ccc(Br)o3)c2)[C@@H](F)[C@@H]1O", "note": "[Compound I-24, [(1R,2R,3R,4R)-4-{[5-({1-[(5-Bromo-2-furyl)methyl]-1H-pyrrol-3-yl}carbonyl)pyrimidin-4-yl]amino}-3-fluoro-2-hydroxycyclopentyl]methyl sulfamate]", "values": [{"measurement": "IC50", "value": "< 10", "unit": "nM"}, {"measurement": "inhibition at 0.111 µM", "setting": "[1]", "value": 100, "unit": "%"}]}, {"smiles": "NS(=O)(=O)OC[C@H]1C[C@@H](Nc2ncncc2C(=O)c2ccn(Cc3cccc(Br)c3)n2)[C@@H](F)[C@@H]1O", "note": "[Compound I-15, {(1R,2R,3R,4R)-4-[(5-{[1-(3-bromobenzyl)-1H-pyrazol-3-yl]carbonyl}pyrimidin-4-yl)amino]-3-fluoro-2-hydroxycyclopentyl}methyl sulfamate]", "values": [{"measurement": "IC50", "value": "< 10", "unit": "nM"}, {"measurement": "inhibition at 0.111 µM", "setting": "[1]", "value": 98, "unit": "%"}]}, {"smiles": "NS(=O)(=O)OC[C@H]1C[C@@H](Nc2ncncc2C(=O)c2cc(Cl)n(Cc3cccc(C(F)(F)F)c3)c2)[C@@H](F)[C@@H]1O", "note": "[Compound I-184, [(1R,2R,3R,4R)-4-{[5-({5-chloro-1-[3-(trifluoromethyl)benzyl]-1H-pyrrol-3-yl}carbonyl)pyrimidin-4-yl]amino}-3-fluoro-2-hydroxycyclopentyl]methyl sulfamate]", "values": [{"measurement": "IC50", "value": "< 10", "unit": "nM"}, {"measurement": "inhibition at 0.111 µM", "setting": "[1]", "value": 97, "unit": "%"}]}, {"smiles": "Cc1cc(C(=O)c2cncnc2N[C@@H]2C[C@H](COS(N)(=O)=O)[C@@H](O)C2)nn1C(C)c1cccc(Cl)c1", "note": "(single isomer, unassigned) [Compound I-365, [(1R,2S,4R)-4-{[5-({1-[(1S)-1-(3-chlorophenyl)ethyl]-5-methyl-1H-pyrazol-3-yl}carbonyl)pyrimidin-4-yl]amino}-2-hydroxycyclopentyl]methyl sulfamate or [(1R,2S,4R)-4-{[5-({1-[(1R)-1-(3-chlorophenyl)ethyl]-5-methyl-1H-pyrazol-3-yl}carbonyl)pyrimidin-4-yl]amino}-2-hydroxycyclopentyl]methyl sulfamate]", "values": [{"measurement": "IC50", "value": "10 to 100", "unit": "nM"}, {"measurement": "Percent Inhibition", "setting": "compound concentration 0.111 μM, 0.111 µM", "value": 79, "unit": "%"}]}, {"smiles": "NS(=O)(=O)OC[C@H]1C[C@@H](Nc2ncncc2C(=O)c2ccn(Cc3ccc(C(F)(F)F)s3)c2)[C@@H](F)[C@@H]1O", "note": "[Compound I-257, [(1R,2R,3R,4R)-3-fluoro-2-hydroxy-4-({5-[(1-{[5-(trifluoromethyl)-2-thienyl]methyl}-1H-pyrrol-3-yl)carbonyl]pyrimidin-4-yl}amino)cyclopentyl]methyl sulfamate]", "values": [{"measurement": "IC50", "value": "< 10", "unit": "nM"}, {"measurement": "inhibition at 0.111 µM", "setting": "[1]", "value": 98, "unit": "%"}]}, {"smiles": "COc1cc(Cn2ccc(C(=O)c3cncnc3N[C@@H]3C[C@H](COS(N)(=O)=O)[C@@H](O)[C@@H]3F)c2)ccc1F", "note": "[Compound I-57, {(1R,2R,3R,4R)-3-Fluoro-4-[(5-{[1-(4-fluoro-3-methoxybenzyl)-1H-pyrrol-3-yl]carbonyl}pyrimidin-4-yl)amino]-2-hydroxycyclopentyl}methyl sulfamate]", "values": [{"measurement": "IC50", "value": "< 10", "unit": "nM"}, {"measurement": "inhibition at 0.111 µM", "setting": "[1]", "value": 98, "unit": "%"}]}, {"smiles": "Cc1cc(C(=O)c2cncnc2N[C@@H]2C[C@@H](COS(N)(=O)=O)[C@@H](O)C2)nn1Cc1cccc(Br)c1", "note": "[Compound I-6, {(1S,2S,4R)-4-[(5-{[1-(3-bromobenzyl)-5-methyl-1H-pyrazol-3-yl]carbonyl}pyrimidin-4-yl)amino]-2-hydroxycyclopentyl}methyl sulfamate]", "values": [{"measurement": "IC50", "value": "< 10", "unit": "nM"}, {"measurement": "inhibition at 0.111 µM", "setting": "[1]", "value": 99, "unit": "%"}]}, {"smiles": "Cc1cc(C(=O)c2cncnc2N[C@@H]2C[C@H](COS(N)(=O)=O)[C@@H](O)C2)nn1Cc1ccccc1", "note": "[Compound I-66, [(1R,2S,4R)-4-({5-[(1-benzyl-5-methyl-1H-pyrazol-3-yl)carbonyl]pyrimidin-4-yl}amino)-2-hydroxycyclopentyl]methyl sulfamate]", "values": [{"measurement": "IC50", "value": "< 10", "unit": "nM"}, {"measurement": "inhibition at 0.111 µM", "setting": "[1]", "value": 98, "unit": "%"}]}, {"smiles": "NS(=O)(=O)OC[C@H]1C[C@@H](Nc2ncncc2C(=O)c2ccn(CC(=O)N3CCCC3)n2)[C@@H](F)[C@@H]1O", "note": "[Compound I-19, [(1R,2R,3R,4R)-3-Fluoro-2-hydroxy-4-{[5-({1-[2-oxo-2-(pyrrolidin-1-yl)ethyl]-1H-pyrazol-3-yl}carbonyl)pyrimidin-4-yl]amino}cyclopentyl]methyl sulfamate]", "values": [{"measurement": "IC50", "value": "100 to 1000", "unit": "nM"}, {"measurement": "inhibition at 0.111 µM", "setting": "[1]", "value": 20, "unit": "%"}]}, {"smiles": "NS(=O)(=O)OC[C@H]1C[C@@H](Nc2ccncc2C(=O)c2ccn(Cc3ccccc3)n2)[C@H](O)[C@@H]1O", "note": "[Compound I-56, [(1R,2R,3S,4R)-4-({3-[(1-Benzyl-1H-pyrazol-3-yl)carbonyl]pyridin-4-yl}amino)-2,3-dihydroxycyclopentyl]methyl sulfamate]", "values": [{"measurement": "IC50", "value": "< 10", "unit": "nM"}, {"measurement": "inhibition at 0.111 µM", "setting": "[1]", "value": 100, "unit": "%"}]}]}
